Laboratory results taken from patent publication US20260130395A1, “Water Dispersible Botanical Compositions” (Aquila Black Limited, priority 2021, published 2026).

How the values were obtained:
[1] = Stability of Nanoemulsion Concentrate 3 (α-tocopherol and Vitamin B12 content) by LCMSMS; type: physicochemical; conditions: for Stability of α-tocopherol in Nanoemulsion Concentrate 3: average of triplicate
Experimental: At each time period (0, 7, 28, 60, 120, 150 and 180 days), triplicate samples were analysed for content of α-tocopherol and Vitamin B12.
(FIGS. 14 and 15, Table 13). Data reported in Table 13 and plotted in FIGS. 14 and 15 are average values of the triplicate measurements taken.

[2] = Stability of cannabinoid entourage and Vitamin E components of the powder concentrate by LCMSMS; type: physicochemical; conditions: powder stored at 21-25° C.
Experimental: At each time period, 0.05 g of powder was dissolved in 10 ml-15 of ethanol, diluted to fall within the analytical range, and injected into the LCMSMS for analysis.

Cc1c(C)c2c(c(C)c1O)CC[C@@](C)(CCC[C@H](C)CCC[C@H](C)CCCC(C)C)O2 [α-Tocopherol]
Stability of α-tocopherol in Nanoemulsion Concentrate 3 ([1]; Refrigerated (2-4° C.), 0 days): 0.25 mg/mL | Stability of α-tocopherol in Nanoemulsion Concentrate 3 ([1]; Refrigerated (2-4° C.), 7 days): 0.25 mg/mL | Stability of α-tocopherol in Nanoemulsion Concentrate 3 ([1]; Refrigerated (2-4° C.), 28 days): 0.23 mg/mL | Stability of α-tocopherol in Nanoemulsion Concentrate 3 ([1]; Refrigerated (2-4° C.), 60 days): 0.26 mg/mL | Stability of α-tocopherol in Nanoemulsion Concentrate 3 ([1]; Refrigerated (2-4° C.), 120 days): 0.26 mg/mL | Stability of α-tocopherol in Nanoemulsion Concentrate 3 ([1]; Refrigerated (2-4° C.), 150 days): 0.23 mg/mL | Stability of α-tocopherol in Nanoemulsion Concentrate 3 ([1]; Refrigerated (2-4° C.), 180 days): 0.27 mg/mL | Stability of α-tocopherol in Nanoemulsion Concentrate 3 ([1]; Room Temperature (21-25° C.), 0 days): 0.25 mg/mL | Stability of α-tocopherol in Nanoemulsion Concentrate 3 ([1]; Room Temperature (21-25° C.), 7 days): 0.21 mg/mL | Stability of α-tocopherol in Nanoemulsion Concentrate 3 ([1]; Room Temperature (21-25° C.), 28 days): 0.22 mg/mL | Stability of α-tocopherol in Nanoemulsion Concentrate 3 ([1]; Room Temperature (21-25° C.), 60 days): 0.23 mg/mL | Stability of α-tocopherol in Nanoemulsion Concentrate 3 ([1]; Room Temperature (21-25° C.), 120 days): 0.20 mg/mL | Stability of α-tocopherol in Nanoemulsion Concentrate 3 ([1]; Room Temperature (21-25° C.), 150 days): 0.21 mg/mL | Stability of α-tocopherol in Nanoemulsion Concentrate 3 ([1]; Room Temperature (21-25° C.), 180 days): 0.17 mg/mL | stability in Nanoemulsion Concentrate 3 (in words) ([1]; after 180 days stored at 21-25° C.): some slight degradation | stability in Nanoemulsion Concentrate 3 (in words) ([1]; stored at 2-4° C., 180 days): high degree of stability | Stability of Vitamin Es in Powder Concentrate ([2]; 0 days): 4.85 mg/g powder | Stability of Vitamin Es in Powder Concentrate ([2]; 1 days): 4.89 mg/g powder | Stability of Vitamin Es in Powder Concentrate ([2]; 2 days): 4.79 mg/g powder | Stability of Vitamin Es in Powder Concentrate ([2]; 3 days): 4.69 mg/g powder | Stability of Vitamin Es in Powder Concentrate ([2]; 5 days): 4.99 mg/g powder | Stability of Vitamin Es in Powder Concentrate ([2]; 8 days): 4.69 mg/g powder | Stability of Vitamin Es in Powder Concentrate ([2]; 9 days): 4.75 mg/g powder | Stability of Vitamin Es in Powder Concentrate ([2]; 10 days): 4.77 mg/g powder | Stability of Vitamin Es in Powder Concentrate ([2]; 11 days): 5.04 mg/g powder | Stability of Vitamin Es in Powder Concentrate ([2]; 12 days): 5.01 mg/g powder | Stability of Vitamin Es in Powder Concentrate ([2]; 15 days): 5.07 mg/g powder | Stability of Vitamin Es in Powder Concentrate ([2]; 16 days): 4.96 mg/g powder | Stability of Vitamin Es in Powder Concentrate ([2]; 17 days): 4.94 mg/g powder | Stability of Vitamin Es in Powder Concentrate ([2]; 18 days): 4.77 mg/g powder | Stability of Vitamin Es in Powder Concentrate ([2]; 19 days): 5.04 mg/g powder | Stability of Vitamin Es in Powder Concentrate ([2]; 22 days): 4.94 mg/g powder | Stability of Vitamin Es in Powder Concentrate ([2]; 23 days): 4.91 mg/g powder | Stability of Vitamin Es in Powder Concentrate ([2]; 24 days): 5.00 mg/g powder | Stability of Vitamin Es in Powder Concentrate ([2]; 25 days): 5.06 mg/g powder | Stability of Vitamin Es in Powder Concentrate ([2]; 26 days): 4.84 mg/g powder | Stability of Vitamin Es in Powder Concentrate ([2]; 29 days): 4.85 mg/g powder | Stability of Vitamin Es in Powder Concentrate ([2]; 30 days): 4.83 mg/g powder | Stability of Vitamin Es in Powder Concentrate ([2]; 60 days): 4.91 mg/g powder | Stability of Vitamin Es in Powder Concentrate ([2]; 90 days): 4.96 mg/g powder | Stability of Vitamin Es in Powder Concentrate ([2]; 120 days): 4.93 mg/g powder | Stability of Vitamin Es in Powder Concentrate ([2]; 150 days): 4.69 mg/g powder | Stability of Vitamin Es in Powder Concentrate ([2]; 180 days): 4.70 mg/g powder | Stability of Vitamin Es in Powder Concentrate ([2]; 210 days): 4.84 mg/g powder | Stability of Vitamin Es in Powder Concentrate ([2]; 240 days): 5.03 mg/g powder | Stability of Vitamin Es in Powder Concentrate ([2]; 270 days): 4.78 mg/g powder | Stability of Vitamin Es in Powder Concentrate ([2]; 300 days): 4.81 mg/g powder | Stability of Vitamin Es in Powder Concentrate ([2]; 330 days): 4.81 mg/g powder | Stability of Vitamin Es in Powder Concentrate ([2]; 360 days): 4.83 mg/g powder | Stability of Vitamin Es in Powder Concentrate ([2]; 390 days): 4.91 mg/g powder | Stability of Vitamin Es in Powder Concentrate ([2]; 420 days): 4.69 mg/g powder | Stability of Vitamin Es in Powder Concentrate ([2]; 450 days): 5.00 mg/g powder | Stability of Vitamin Es in Powder Concentrate ([2]; 480 days): 4.98 mg/g powder | Stability of Vitamin Es in Powder Concentrate ([2]; 510 days): 5.02 mg/g powder | Stability of Vitamin Es in Powder Concentrate ([2]; 540 days): 5.03 mg/g powder | Stability of Vitamin Es in Powder Concentrate ([2]; 570 days): 4.72 mg/g powder

Cc1c(C)c2c(c(C)c1OC(=O)CCC(=O)O)CC[C@@](C)(CCC[C@H](C)CCC[C@H](C)CCCC(C)C)O2 [α-Tocopheryl succinate]
Stability of Vitamin Es in Powder Concentrate ([2]; 0 days): 1.82 mg/g powder | Stability of Vitamin Es in Powder Concentrate ([2]; 1 days): 1.81 mg/g powder | Stability of Vitamin Es in Powder Concentrate ([2]; 2 days): 1.81 mg/g powder | Stability of Vitamin Es in Powder Concentrate ([2]; 3 days): 1.81 mg/g powder | Stability of Vitamin Es in Powder Concentrate ([2]; 5 days): 1.83 mg/g powder | Stability of Vitamin Es in Powder Concentrate ([2]; 8 days): 1.90 mg/g powder | Stability of Vitamin Es in Powder Concentrate ([2]; 9 days): 1.89 mg/g powder | Stability of Vitamin Es in Powder Concentrate ([2]; 10 days): 1.87 mg/g powder | Stability of Vitamin Es in Powder Concentrate ([2]; 11 days): 1.89 mg/g powder | Stability of Vitamin Es in Powder Concentrate ([2]; 12 days): 1.87 mg/g powder | Stability of Vitamin Es in Powder Concentrate ([2]; 15 days): 1.87 mg/g powder | Stability of Vitamin Es in Powder Concentrate ([2]; 16 days): 1.83 mg/g powder | Stability of Vitamin Es in Powder Concentrate ([2]; 17 days): 1.88 mg/g powder | Stability of Vitamin Es in Powder Concentrate ([2]; 18 days): 1.77 mg/g powder | Stability of Vitamin Es in Powder Concentrate ([2]; 19 days): 1.85 mg/g powder | Stability of Vitamin Es in Powder Concentrate ([2]; 22 days): 1.78 mg/g powder | Stability of Vitamin Es in Powder Concentrate ([2]; 23 days): 1.80 mg/g powder | Stability of Vitamin Es in Powder Concentrate ([2]; 24 days): 1.90 mg/g powder | Stability of Vitamin Es in Powder Concentrate ([2]; 25 days): 1.90 mg/g powder | Stability of Vitamin Es in Powder Concentrate ([2]; 26 days): 1.76 mg/g powder | Stability of Vitamin Es in Powder Concentrate ([2]; 29 days): 1.87 mg/g powder | Stability of Vitamin Es in Powder Concentrate ([2]; 30 days): 1.80 mg/g powder | Stability of Vitamin Es in Powder Concentrate ([2]; 60 days): 1.77 mg/g powder | Stability of Vitamin Es in Powder Concentrate ([2]; 90 days): 1.83 mg/g powder | Stability of Vitamin Es in Powder Concentrate ([2]; 120 days): 1.83 mg/g powder | Stability of Vitamin Es in Powder Concentrate ([2]; 150 days): 1.89 mg/g powder | Stability of Vitamin Es in Powder Concentrate ([2]; 180 days): 1.77 mg/g powder | Stability of Vitamin Es in Powder Concentrate ([2]; 210 days): 1.80 mg/g powder | Stability of Vitamin Es in Powder Concentrate ([2]; 240 days): 1.84 mg/g powder | Stability of Vitamin Es in Powder Concentrate ([2]; 270 days): 1.87 mg/g powder | Stability of Vitamin Es in Powder Concentrate ([2]; 300 days): 1.84 mg/g powder | Stability of Vitamin Es in Powder Concentrate ([2]; 330 days): 1.83 mg/g powder | Stability of Vitamin Es in Powder Concentrate ([2]; 360 days): 1.79 mg/g powder | Stability of Vitamin Es in Powder Concentrate ([2]; 390 days): 1.87 mg/g powder | Stability of Vitamin Es in Powder Concentrate ([2]; 420 days): 1.82 mg/g powder | Stability of Vitamin Es in Powder Concentrate ([2]; 450 days): 1.80 mg/g powder | Stability of Vitamin Es in Powder Concentrate ([2]; 480 days): 1.76 mg/g powder | Stability of Vitamin Es in Powder Concentrate ([2]; 510 days): 1.76 mg/g powder | Stability of Vitamin Es in Powder Concentrate ([2]; 540 days): 1.80 mg/g powder | Stability of Vitamin Es in Powder Concentrate ([2]; 570 days): 1.77 mg/g powder
